Results as given in patent EP2766361B1, “8-CARBAMOYL-2-(2,3-DISUBSTITUTED PYRID-6-YL)-1,2,3,4-TETRAHYDROISOQUINOLINE DERIVATIVES AS APOPTOSIS-INDUCING AGENTS FOR THE TREATMENT OF CANCER AND IMMUNE AND AUTOIMMUNE DISEASES” (priority 2011, dated 2013).

System: mouse FL5.12 cells transfected with Bcl-xL
Assay: FL5.12 cellular assay (cell viability, CellTiter-Glo)
Type: cell-based
Conditions: IL-3-depleted, 3% FBS assay media, 24 hours, read-out: FL5.12 Bcl-xL, -IL3, EC50
Method: Cell viability was assayed using the CellTiter-Glo assay (Promega Corp., Madison, WI) according to the manufacturer instructions. Individual determinations were the result of duplicate values. […] Table 2. In Vitro Data

| Structure (SMILES) | EC50 [nM] |
| --- | --- |
| COCCOCCOC12CC3CC(CC(Cn4ncc(-c5ccc(N6CCc7cccc(C(=O)Nc8nc9ccccc9s8)c7C6)nc5C(=O)O)c4C)(C3)C1)C2 [Example 63, 6-[8-(1,3-benzothiazol-2-ylcarbamoyl)-3,4-dihydroisoquinolin-2(1H)-yl]-3-[1-({3-[2-(2-methoxyethoxy)ethoxy]tricyclo[3.3.1.1^3,7]dec-1-yl}methyl)-5-methyl-1H-pyrazol-4-yl]pyridine-2-carboxylic acid] | 3 |
| Cc1c(C(=O)N(C)C2C3CC4CC(C3)CC2C4)cccc1-c1ccc(N2CCc3cccc(C(=O)Nc4nc5ccccc5s4)c3C2)nc1C(=O)O (centres unmarked) [Example 64] | 26 |
| Cc1c(-c2ccc(N3CCc4cccc(C(=O)Nc5nc6ccccc6s5)c4C3)nc2C(=O)O)cnn1CC1(OCCS(C)(=O)=O)CCCCCCC1 [Example 65, 6-[8-(1,3-benzothiazol-2-ylcarbamoyl)-3,4-dihydroisoquinolin-2(1H)-yl]-3-[5-methyl-1-({1-[2-(methylsulfonyl)ethoxy]cyclooctyl}methyl)-1H-pyrazol-4-yl]pyridine-2-carboxylic acid] | 1 |
| Cc1c(-c2ccc(N3CCc4cccc(C(=O)Nc5nc6ccccc6s5)c4C3)nc2C(=O)O)nnn1CC12CC3CC(CC(C3)O1)C2 [Example 66, 6-[8-(1,3-benzothiazol-2-ylcarbamoyl)-3,4-dihydroisoquinolin-2(1H)-yl]-3-[5-methyl-1-(2-oxatricyclo[3.3.1.1^3,7]dec-1-ylmethyl)-1H-1,2,3-triazol-4-yl]pyridine-2-carboxylic acid] | 26 |
| Cc1c(-c2ccc(N3CCc4cccc(C(=O)Nc5nc6cccnc6s5)c4C3)nc2C(=O)O)cnn1CC12CC3CC(CC(C3)O1)C2 [Example 67, 3-[5-methyl-1-(2-oxatricyclo[3.3.1.1^3,7]dec-1-ylmethyl)-1H-pyrazol-4-yl]-6-[8-([1,3]thiazolo[5,4-b]pyridin-2-ylcarbamoyl)-3,4-dihydroisoquinolin-2(1H)-yl]pyridine-2-carboxylic acid] | 9 |
| Cc1c(-c2ccc(N3CCc4cccc(C(=O)Nc5nc6ccccc6s5)c4C3)nc2C(=O)O)cccc1N(C)C(=O)C12CC3CC(CC(C3)O1)C2 [Example 68, 6-[8-(1,3-benzothiazol-2-ylcarbamoyl)-3,4-dihydroisoquinolin-2(1H)-yl]-3-{2-methyl-3-[methyl(2-oxatricyclo[3.3.1.1^3,7]dec-1-ylcarbonyl)amino]phenyl}pyridine-2-carboxylic acid] | 22 |
| Cc1c(-c2ccc(N3CCc4cccc(C(=O)Nc5nc6ccccc6s5)c4C3)nc2C(=O)O)cccc1S(=O)(=O)N(C)C1C2CC3CC(C2)CC1C3 (centres unmarked) [Example 69, 6-[8-(1,3-benzothiazol-2-ylcarbamoyl)-3,4-dihydroisoquinolin-2(1H)-yl]-3-(2-methyl-3-{methyl[tricyclo[3.3.1.1^3,7]dec-2-yl]sulfamoyl}phenyl)pyridine-2-carboxylic acid] | 449 |
| Cc1c(-c2ccc(N3CCc4cccc(C(=O)Nc5nc6ccccc6s5)c4C3)nc2C(=O)O)ccnc1S(=O)(=O)C12CC3CC(CC(C3)C1)C2 [Example 70, 6-[8-(1,3-benzothiazol-2-ylcarbamoyl)-3,4-dihydroisoquinolin-2(1H)-yl]-3'-methyl-2'-(tricyclo[3.3.1.1^3,7]dec-1-ylsulfonyl)-3,4'-bipyridine-2-carboxylic acid] | 72 |
| Cc1c(-c2ccc(N3CCc4cccc(C(=O)Nc5nc6ccccc6s5)c4C3)nc2C(=O)O)cc(C#N)n1CC12CC3CC(CC(C3)O1)C2 [Example 71, 6-[8-(1,3-benzothiazol-2-ylcarbamoyl)-3,4-dihydroisoquinolin-2(1H)-yl]-3-[5-cyano-2-methyl-1-(2-oxatricyclo[3.3.1.1^3,7]dec-1-ylmethyl)-1H-pyrrol-3-yl]pyridine-2-carboxylic acid] | 1 |
| Cc1c(-c2ccc(N3CCc4cccc(C(=O)Nc5nc6ccccc6s5)c4C3)nc2C(=O)O)ccnc1SC12CC3CC(CC(C3)C1)C2 [Example 74, 6-[8-(1,3-benzothiazol-2-ylcarbamoyl)-3,4-dihydroisoquinolin-2(1H)-yl]-3'-methyl-2'-(tricyclo[3.3.1.1^3,7]dec-1-ylsulfanyl)-3,4'-bipyridine-2-carboxylic acid] | 7 |
| Cc1c(-c2ccc(N3CCc4cccc(C(=O)Nc5nc6cccnc6s5)c4C3)nc2C(=O)NS(C)(=O)=O)cnn1CC12CC3CC(CC(C3)C1)C2 [Example 75, 2-{6-[(methylsulfonyl)carbamoyl]-5-[5-methyl-1-(tricyclo[3.3.1.1^3,7]dec-1-ylmethyl)-1H-pyrazol-4-yl]pyridin-2-yl}-N-([1,3]thiazolo[5,4-b]pyridin-2-yl)-1,2,3,4-tetrahydroisoquinoline-8-carboxamide] | 3 |
| Cc1c(-c2ccc(N3CCc4cccc(C(=O)Nc5nc6ccccc6s5)c4C3)nc2C(=O)O)ccnc1NC12CC3CC(CC(C3)C1)C2 [Example 76, 6-[8-(1,3-benzothiazol-2-ylcarbamoyl)-3,4-dihydroisoquinolin-2(1H)-yl]-3'-methyl-2'-(tricyclo[3.3.1.1^3,7]dec-1-ylamino)-3,4'-bipyridine-2-carboxylic acid] | 71 |
| Cc1c(-c2ccc(N3CCc4cccc(C(=O)Nc5cn6ncccc6n5)c4C3)nc2C(=O)O)cnn1CC12CC3CC(CC(C3)C1)C2 [Example 77, 6-[8-(imidazo[1,2-b]pyridazin-2-ylcarbamoyl)-3,4-dihydroisoquinolin-2(1H)-yl]-3-[5-methyl-1-(tricyclo[3.3.1.1^3,7]dec-1-ylmethyl)-1H-pyrazol-4-yl]pyridine-2-carboxylic acid] | 4 |
| Cc1c(-c2ccc(N3CCc4cccc(C(=O)Nc5nc6ccncc6s5)c4C3)nc2C(=O)O)cnn1CC12CC3CC(CC(C3)C1)C2 [Example 78, 3-[5-methyl-1-(tricyclo[3.3.1.1^3,7]dec-1-ylmethyl)-1H-pyrazol-4-yl]-6-[8-([1,3]thiazolo[5,4-c]pyridin-2-ylcarbamoyl)-3,4-dihydroisoquinolin-2(1H)-yl]pyridine-2-carboxylic acid] | 3 |
| COC1(Cn2ncc(-c3ccc(N4CCc5cccc(C(=O)Nc6nc7ccccc7s6)c5C4)nc3C(=O)O)c2C)CCCC2(CC2)C1 (centres unmarked) [Example 79, 6-[8-(1,3-benzothiazol-2-ylcarbamoyl)-3,4-dihydroisoquinolin-2(1H)-yl]-3-{1-[(5-methoxyspiro[2.5]oct-5-yl)methyl]-5-methyl-1H-pyrazol-4-yl}pyridine-2-carboxylic acid] | 0.9 |
| COCCOCCOCCOC12CC3CC(CC(Cn4ncc(-c5ccc(N6CCc7cccc(C(=O)Nc8nc9ccccc9s8)c7C6)nc5C(=O)O)c4C)(C3)C1)C2 [Example 80, 6-[8-(1,3-benzothiazol-2-ylcarbamoyl)-3,4-dihydroisoquinolin-2(1H)-yl]-3-(1-{[3-{2-[2-(2-methoxyethoxy)ethoxy]ethoxy}tricyclo[3.3.1.1^3,7]dec-1-yl]methyl}-5-methyl-1H-pyrazol-4-yl)pyridine-2-carboxylic acid] | 1 |
| O=C(Nc1nc2ccccc2s1)c1cccc2c1CN(c1ccc(-c3cnn(CC4CC5CCC(C4)N5C(=O)OCc4ccccc4)c3)c(C(=O)O)n1)CC2 (centres unmarked) [Example 84, 6-[8-(1,3-benzothiazol-2-ylcarbamoyl)-3,4-dihydroisoquinolin-2(1H)-yl]-3-[1-({8-[(benzyloxy)carbonyl]-8-azabicyclo[3.2.1]oct-3-yl}methyl)-1H-pyrazol-4-yl]pyridine-2-carboxylic acid] | > 1000 |
